From patent US12221449B2, “Pyrrolopyrimidine derivative and use thereof” (WUHAN HUMANWELL INNOVATIVE DRUG RESEARCH AND DEVELOPMENT …, priority 2019, dated 2025)
Converted amounts (≈) assume the structure as drawn. Read-outs that look alike come from different tables or passages of the source. One block for each molecule: values may come before it.

Key:
[1] = target: hERG channels (CHO cell line stably expressing hERG) (Homo sapiens (Human), UniProt Q12809); experiment: Inhibitory effect on hERG by full-automatic electrophysiological patch clamp QPatch; format: cell-based; details: for IC50: CHO hERG cells, QPatch; for hERG IC50/ATX IC50: ratio of hERG IC50 (μM) to ATX IC50 (nM)
Sequence of hERG channels (CHO cell line stably expressing hERG) (Q12809 whole entry): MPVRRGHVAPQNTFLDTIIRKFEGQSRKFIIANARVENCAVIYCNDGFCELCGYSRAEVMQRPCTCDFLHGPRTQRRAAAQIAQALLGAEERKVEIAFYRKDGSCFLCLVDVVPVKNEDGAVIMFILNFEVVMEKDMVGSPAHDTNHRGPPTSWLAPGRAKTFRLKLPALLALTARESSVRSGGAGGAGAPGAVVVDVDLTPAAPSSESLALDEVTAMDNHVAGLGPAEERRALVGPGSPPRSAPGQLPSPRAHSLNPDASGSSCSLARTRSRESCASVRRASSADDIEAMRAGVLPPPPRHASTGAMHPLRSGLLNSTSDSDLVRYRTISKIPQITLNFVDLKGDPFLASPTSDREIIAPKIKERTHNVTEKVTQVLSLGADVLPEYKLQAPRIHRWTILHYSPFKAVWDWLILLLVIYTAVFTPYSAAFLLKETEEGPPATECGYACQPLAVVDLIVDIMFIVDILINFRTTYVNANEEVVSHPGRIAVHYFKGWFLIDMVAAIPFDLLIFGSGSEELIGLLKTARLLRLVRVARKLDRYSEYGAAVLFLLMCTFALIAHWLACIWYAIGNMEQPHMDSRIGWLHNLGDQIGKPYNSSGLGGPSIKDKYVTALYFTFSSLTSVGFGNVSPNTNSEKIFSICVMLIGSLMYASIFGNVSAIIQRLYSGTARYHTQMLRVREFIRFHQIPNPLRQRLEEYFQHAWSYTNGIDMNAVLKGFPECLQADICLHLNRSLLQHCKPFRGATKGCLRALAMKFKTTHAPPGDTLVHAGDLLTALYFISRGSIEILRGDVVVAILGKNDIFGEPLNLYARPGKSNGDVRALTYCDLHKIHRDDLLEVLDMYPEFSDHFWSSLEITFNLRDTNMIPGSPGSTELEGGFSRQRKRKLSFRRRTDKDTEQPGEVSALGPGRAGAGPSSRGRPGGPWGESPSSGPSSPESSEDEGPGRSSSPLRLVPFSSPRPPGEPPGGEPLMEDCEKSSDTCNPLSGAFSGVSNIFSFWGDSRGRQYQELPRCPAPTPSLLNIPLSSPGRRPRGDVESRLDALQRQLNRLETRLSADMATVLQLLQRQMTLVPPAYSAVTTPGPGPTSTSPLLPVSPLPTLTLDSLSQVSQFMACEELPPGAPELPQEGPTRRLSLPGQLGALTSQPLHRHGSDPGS
Description: Full-automatic electrophysiological patch clamp QPatch was used to detect the inhibitory effect of compounds on hERG. Cells used in this test were CHO cell line transfected with cDNA of hERG and stably expressing hERG channels (provided by Sophion Bioscience, Denmark), and the cell passage number was P24. The cells were cultured in a medium containing the following components (all purchased from Invitrogen): Ham's F12 medium, inactivated fetal bovine serum (10% (v/v)), hygromycin B (100 μg/ml), and Geneticin (100 μg/ml). CHO hERG cells were grown in a petri dish containing the above-mentioned medium and cultured in an incubator at 37° C. and containing 5% Co2.
The compound to be tested was prepared as a 10 mM stock solution in DMSO solvent, the compound was diluted to 3 mM, 1 mM, 0.3 mM, and 0.1 mM with DMSO, and then the compound was diluted to 30 μM, 10 μM, 3 μM, 1 μM, 0.3 μM and 0.1 μM with the extracellular fluid, so that except that the final concentration of DMSO in the 30 μM compound was 0.3%, the final concentration of DMSO in compound solutions of all other concentrations was 0.1%.
The CHO hERG cells, after being digested and resuspended, were added to the fully automated QPatch system (Sophion, Denmark), and subjected to a test according to the following preset procedure.
After reaching the ruptured whole cell configuration state in the initial stage, the whole cell current was recorded at room temperature (about 25° C.), and the cells were recorded for at least 120 seconds in order to achieve stability. The stable cells were selected for the test. During the whole test, the cell patch clamp was at a voltage of −80 mV, the cell patch clamp voltage was depolarized to +20 mV to activate the hERG potassium channels, and after 2.5 seconds, the cell patch clamp voltage was at −50 mV to eliminate inactivation and generate outward tail current. The peak tail current was used as the value of the hERG current. The voltage mode described above was applied to the cells for electrophysiological tests every 15 seconds. An intracellular liquid containing 0.1% dimethyl sulfoxide (solvent) was added to the cells to establish a baseline, and then the current was allowed to stabilize for 3 min. After the compound solution was added, the cells were kept in the test environment until the effect of the compound reached a steady state or until reaching 4 min. In the test experiments with different concentration gradients of the compound, the compound was added to the clamped cells from low to high concentration. After the compound test was finished, the cells were washed with the extracellular fluid until the current returned to a stable state.
The test data were analyzed by Qpatch analysis software provided by Sophion, Excel, and Graphpad Prism.

Autotaxin (ATX) enzyme = Autotaxin (ATX) enzyme (Homo sapiens (Human), UniProt Q13822); experiment: Autotaxin (ATX) enzyme activity inhibition assay (Cayman Autotaxin Inhibitor Screening Assay Kit); format: biochemical; details: OD405, 37° C., 30 min; read-out: IC50, inhibitory activity on ATX activity
Description: Subsequently, the 8 concentrations were diluted with Autotaxin Assay buffer (1×) provided in the kit into 19× compound working solutions (DMSO content was 1.9%). The Autotaxin Assay Reagent (10×) was taken out and diluted by 10 times with Autotaxin Assay Buffer (1×). The Autotaxin Substrate was taken out, dissolved by adding 1.2 mL of Autotaxin Assay Buffer (1×), mixed evenly and stood at room temperature.

[2] = Human liver microsome stability test; format: in vitro ADME; details: human liver microsomes; for Remaining percentage (%) of compound after incubation for 30 min: 37° C., NADPH; for half-life at 1 µM: human
Description: The human liver microsome stability test was performed by incubating the compound and human liver microsomes in vitro. First, the test compound is prepared as a 10 mM stock solution in DMSO solvent, and then the compound was diluted to 0.5 mM with acetonitrile. Human liver microsomes (Corning) were diluted with PBS and prepared as a microsome/buffer solution, which was used to dilute 0.5 mM of the compound into a working solution. […] A deep-well multiwell plate was taken, 30 μL of the working solution and 15 μL of pre-warmed NADPH solution (6 mM) were sequentially added to each well to initiate a reaction, and the reaction was incubated at 37° C. […] After centrifugation, the supernatant was collected, and added with purified water in a ratio of 1:1 to perform LC-MS/MS detection. […] T1/2 was calculated by using Excel.

[3] = target: ATX enzyme activity in human plasma (Homo sapiens (Human), UniProt Q13822); experiment: Inhibition test of ATX enzyme activity in human plasma (LPA18:2 formation); format: biochemical; details: 37° C., 3 h
Description: Whole blood was collected from healthy volunteers and anticoagulated with heparin. The blood collection tubes were centrifuged at 3,000 rpm for 10 min, and the plasma was taken and stored at −80° C. for use.
The compound was serially diluted with DMSO according to the conventional concentration requirements, and then 3 μL of the diluted compound was added to a 96-well plate, and 147 μL of PBS was added to each well containing 3 μL of the compound. After mixing homogenously, 50 μL of the mixture was removed and added to a new 96-well plate. The human plasma was taken out from the −80° C. refrigerator and thawed through rapid shaking in a 37° C. water bath. 50 μL of the human plasma was taken and added to the 96-well plate containing 50 μL of the diluted compound (the final system was 1% DMSO). The group without the compound was set as the positive control group. The 96-well plate was shaken and mixed uniformly, and incubated at 37° C. for 3 h. A blank group was also provided, and the plasma of the blank group was stored at −80° C. The blank group is provided to determine the baseline concentration of endogenous LPA.
After the incubation was finished, the blank group was thawed on ice and transferred to an incubation plate. Excess acetonitrile containing the internal standard LPA17:0 was added to the incubation plate to precipitate the plasma protein. After vortex centrifugation, the supernatant was taken and diluted, and a peak area of LPA18:2 and a peak area of internal standard LPA17:0 were detected using LC-MSMS mass spectrometry.
According to the inhibition rates of different concentrations of the compound, the IC50 value of the compound, which is related to inhibition of ATX enzyme activity in human plasma, was calculated.

[4] = Pharmacokinetic test in mice; format: in vivo, male ICR mice
Description: (§1) For the in vivo pharmacokinetic test of rats, 6 male SD rats were used, 180-240 g, fasted overnight. […] The blood samples were centrifuged at 8,000 rpm at 4° C. for 6 min, and plasma was collected and stored at −20° C. The plasma at each time point was taken and added with an acetonitrile solution containing internal standard in 3-5 times the amount, vortexed and mixed for 1 min, and centrifuged at 13,000 rpm at 4° C. for 10 min. The supernatant was collected, added and mixed with water in 3 times the amount. An appropriate amount of the mixture was taken for LC-MS/MS analysis. The main pharmacokinetic parameters were analyzed using WinNonlin 7.0 software with non-compartmental model.
For the in vivo pharmacokinetic test of mice, 18 male ICR mice were used, 20-25 g, fasted overnight. Among them, 9 mice were orally administered by gavage (10 mg/kg), bloods of 3 mice were collected at each blood collection time point, and the bloods of the 9 mice were alternately collected. The other 9 mice were intravenously administered with the compound (1 mg/kg), bloods of 3 mice were collected at each blood collection time point, and the bloods of the 9 mice were alternately collected. The rest operations were the same as that of pharmacokinetic test in rats.

[5] = Thermodynamic solubility test; format: physicochemical; details: for solubility: thermodynamic from solid
Description: The compound was accurately weighed, and the prepared phosphate buffer (pH 7.4), FeSSIF solution (pH 5.8) and FaSSGF solution (pH 1.6) were added to prepare a solution with a concentration of 4 mg/mL, which was shaken at 1,000 rpm for 1 hour, and then incubated overnight at room temperature. After the incubation, the solution was centrifuged at 12,000 rpm for 10 min to remove undissolved particles, and the supernatant was transferred to a new centrifuge tube. The supernatant was diluted appropriately, then added with an acetonitrile solution containing the internal standard, and quantified using a standard curve prepared with the same matrix.

[6] = Pharmacokinetic test in rats; format: in vivo, male SD rats; details: for AUC(0-t) / clearance / half-life / Vd / Cmax / Tmax: male, SD, rat, plasma; for Vd: read-out: Vz
Description: as §1

[7] = system: idiopathic pulmonary fibrosis model (IPF model) induced by bleomycin; experiment: IPF model induced by bleomycin in rats; format: in vivo, male BN rats; details: 30 mg/kg orally twice a day; for weight reduction of the animals: 21 days, compared with control compound group, FIG. 1
Description: Using male BN rats, 180-240 g, idiopathic pulmonary fibrosis model (IPF model) was induced with a dose of 5 U/kg bleomycin. […] On the second day after the model was established, the animals were orally administered by gavage twice a day, where the administration group was administered with a dose of 30 mg/kg each time, and the solvent control group was administered with a blank solvent, and the administration continued for 21 days. During the administration, the body weight was weighed every three days. On day 21 of administration, alveolar lavage was conducted 2 h after the first administration, the inflammatory cells in the lavage fluid were counted, and the associated biomarkers in the supernatant of the lavage fluid were detected. After lavage, the left lungs of the rats were fixed, and stained with Masson's trichrome staining to score the fibrosis pathology. The remaining lung lobes were cryopreserved. The supernatant of the alveolar lavage fluid and the freshly frozen lung tissue of the three compound groups were taken and detected for a content of TGF-β1 protein and an amount of total protein by using ELISA, and the amount of TGF-β1 per milligram of total protein was calculated.

[8] = cited from earlier work; for probability of discontinuation due to serious adverse events: patients taking the drug, Maher et al. 2019
[9] = male, ICR, mouse, plasma, intravenous administration 1 mg/kg
[10] = male, ICR, mouse, plasma, oral administration by gavage 10 mg/kg
[11] = FaSSGF solution, fassgf or other biorelevant, FaSSGF, pH 1.6, thermodynamic, read-out: Dissolubility FaSSGF (pH 1.6)
[12] = FeSSIF solution, FeSSIF, pH 5.8, thermodynamic, read-out: Dissolubility FeSSIF (pH 5.8)
[13] = phosphate buffered saline, aqueous buffer, PBS, pH 7.4, thermodynamic, read-out: Dissolubility PBS (pH 7.4)
[14] = intravenous administration 1 mg/kg
[15] = oral administration by gavage 10 mg/kg
[16] = day 21, compared with solvent control group, FIG. 2

SMILES: CC(OCCc1c[nH]nn1)C(=O)N1Cc2cnc(NC3Cc4ccccc4C3)nc2C1 (racemic) [Compound I-1, 2-(2-(1H-1,2,3-triazol-4-yl)ethoxy)-1-(2-((2,3-dihydro-1H-inden-2-yl)amino)-5,7-dihydro-6H-pyrrolo[3,4-d]pyrimidin-6-yl)propan-1-one]
- IC50 [1]: 22300 nM
- hERG IC50/ATX IC50 [1]: 22.3/4.24 = 5.26
- IC50 (Autotaxin (ATX) enzyme): 4.24 nM
- Remaining percentage (%) of compound after incubation for 30 min [2]: 87.4%

SMILES: CC(Cc1cnn[nH]1)OCC(=O)N1Cc2cnc(NC3Cc4ccccc4C3)nc2C1 (racemic) [Compound I-2, 2-((1-(1H-1,2,3-triazol-5-yl)propan-2-yl)oxy)-1-(2-((2,3-dihydro-1H-inden-2-yl)amino)-5,7-dihydro-6H-pyrrolo[3,4-d]pyrimidin-6-yl)ethan-1-one]
- IC50 (Autotaxin (ATX) enzyme): 1.35 nM

SMILES: C[C@H](Cc1cnn[nH]1)OCC(=O)N1Cc2cnc(NC3Cc4ccccc4C3)nc2C1 [Compound I-2R, (R)-2-((1-(1H-1,2,3-triazol-5-yl)propan-2-yl)oxy)-1-(2-((2,3-dihydro-1H-inden-2-yl)amino)-5,7-dihydro-6H-pyrrolo[3,4-d]pyrimidin-6-yl)ethan-1-one]
- IC50 [1]: 9480 nM
- hERG IC50/ATX IC50 [1]: 9.48/1.59 = 6.0
- IC50 [3]: 4.73 nM
- weight reduction of the animals [7]: significantly less than that of the control compound group
- content of TGF-β1 in the freshly frozen lung tissue [7, 16]: significantly lower than those of the solvent control group
- content of TGF-β1 in the supernatant of the alveolar lavage fluid [7, 16]: significantly lower than those of the solvent control group
- solubility [5, 11]: 1040 µg/mL (≈ 2470 µM)
- solubility [5, 12]: 260 µg/mL (≈ 620 µM)
- solubility [5, 13]: 107 µg/mL (≈ 255 µM)
- clearance rate (CL) relative to that of the control compound ([6]; fraction of control compound's CL): about ¼
- oral AUC0-t relative to that of the control compound ([6]; oral): 4.2 times
- oral Cmax relative to that of the control compound ([6]; oral): 6.1 times
- Remaining percentage (%) of compound after incubation for 30 min [2]: 63.7%
- half-life at 1 µM [2]: 53.6 min

SMILES: COC(=O)c1ccc2c(c1)NC(=O)/C2=C(\Nc1ccc(N(C)C(=O)CN2CCN(C)CC2)cc1)c1ccccc1 [Nintedanib]
- probability of discontinuation due to serious adverse events [8]: 26.3%
- incidence of gastrointestinal reactions ([8]; patients): ≤ 50%

SMILES: Cc1ccc(=O)n(-c2ccccc2)c1 [Pirfenidone]
- probability of discontinuation due to serious adverse events [8]: 20.9%

Second part, led by results:

- IC50 [3]: 12 nM
- AUC(0-t) [4, 9]: 495 ng·h/mL
- clearance [4, 9]: 34.8 mL/min/kg
- half-life [4, 9]: 22.2 min
- Vd ([4]; male, ICR, mouse, plasma, intravenous administration 1 mg/kg, read-out: Vz): 1.05 L/kg
- AUC(0-t) [4, 10]: 6120 ng·h/mL
- Cmax [4, 10]: 6940 ng/mL
- Tmax [4, 10]: 25.2 min
- half-life [4, 10]: 40.2 min
- solubility [5, 11]: 88.5 µg/mL (≈ 211 µM)
- solubility [5, 12]: 20.4 µg/mL (≈ 48.6 µM)
- solubility [5, 13]: 20.4 µg/mL (≈ 48.6 µM)
- AUC(0-t) [6, 14]: 828 ng·h/mL
- clearance [6, 14]: 21.3 mL/min/kg
- half-life [6, 14]: 25.8 min
- Vd [6, 14]: 0.76 L/kg
- AUC(0-t) [6, 15]: 6330 ng·h/mL
- Cmax [6, 15]: 3390 ng/mL
- Tmax [6, 15]: 30 min
- half-life [6, 15]: 151 min
- IC50 (Autotaxin (ATX) enzyme): 2.67 nM
- Remaining percentage (%) of compound after incubation for 30 min [2]: 86.0%
- half-life at 1 µM [2]: 123 min
SMILES: C[C@@H](OCCc1c[nH]nn1)C(=O)N1Cc2cnc(NC3Cc4ccccc4C3)nc2C1 [Compound I-1R, (R)-2-(2-(1H-1,2,3-triazol-4-yl)ethoxy)-1-(2-((2,3-dihydro-1H-inden-2-yl)amino)-5,7-dihydro-6H-pyrrolo[3,4-d]pyrimidin-6-yl)propan-1-one]
- IC50 [1]: 22000 nM
- hERG IC50/ATX IC50 [1]: 22.0/2.67 = 8.24

- IC50 (Autotaxin (ATX) enzyme): 28.6 nM
SMILES: C[C@H](OCCc1c[nH]nn1)C(=O)N1Cc2cnc(NC3Cc4ccccc4C3)nc2C1 [Compound I-1S, (S)-2-(2-(1H-1,2,3-triazol-4-yl)ethoxy)-1-(2-((2,3-dihydro-1H-inden-2-yl)amino)-5,7-dihydro-6H-pyrrolo[3,4-d]pyrimidin-6-yl)propan-1-one]

- IC50 [3]: 2.1 nM
- solubility [5, 11]: 1240 µg/mL (≈ 2960 µM)
- solubility [5, 13]: 73.6 µg/mL (≈ 175 µM)
- AUC(0-t) [6, 14]: 661 ng·h/mL
- clearance [6, 14]: 25.2 mL/min/kg
- half-life [6, 14]: 20.4 min
- Vd [6, 14]: 0.74 L/kg
- AUC(0-t) [6, 15]: 3690 ng·h/mL
- Cmax [6, 15]: 2420 ng/mL
- Tmax [6, 15]: 25.2 min
- half-life [6, 15]: 115 min
- IC50 (Autotaxin (ATX) enzyme): 1.4 nM
- Remaining percentage (%) of compound after incubation for 30 min [2]: 42.9%
- half-life at 1 µM [2]: 26.6 min
SMILES: C[C@@H](Cc1cnn[nH]1)OCC(=O)N1Cc2cnc(NC3Cc4ccccc4C3)nc2C1 [Compound I-2S, (S)-2-((1-(1H-1,2,3-triazol-5-yl)propan-2-yl)oxy)-1-(2-((2,3-dihydro-1H-inden-2-yl)amino)-5,7-dihydro-6H-pyrrolo[3,4-d]pyrimidin-6-yl)ethan-1-one]
- IC50 [1]: 8780 nM
- hERG IC50/ATX IC50 [1]: 8.87/1.40 = 6.3
- weight reduction of the animals [7]: significantly less than that of the control compound group

- T1/2 [4, 14]: 20.4 min
- T1/2 [4, 15]: 49.8 min
- Dissolubility FaSSGF (pH 1.6) ([5]; FaSSGF, pH 1.6, thermodynamic): 66.5 μg/mL
- Dissolubility FeSSIF (pH 5.8) ([5]; FeSSIF, pH 5.8, thermodynamic): 18.3 μg/mL
- Dissolubility PBS (pH 7.4) ([5]; PBS, pH 7.4, thermodynamic): 6.3 μg/mL
- thermodynamic solubility (in words) ([5]; simulated gastric juice, simulated intestinal juice, neutral conditions): relatively poor
- T1/2 [6, 14]: 27 min
- T1/2 [6, 15]: 78.6 min
- T1/2 [2]: 24.1 min
- Remaining percentage (%) of compound after incubation for 30 min [2]: 41.2%
SMILES: O=C(COCCc1cnn[nH]1)N1Cc2cnc(NC3Cc4ccccc4C3)nc2C1 [Control compound, reference compound]
